Test results: US7875604B2, “Compounds that inhibit HIV particle formation” (University of Virginia Patent Foundation, priority 2004, dated 2011)

Columns and labels:
[1] = system: U1 cells latently infected with HIV-1; assay: U1 latency activation assay (TNF-α induced, supernatant reverse transcriptase); type: cell-based; conditions: U1 cell assay, analogs, Table 8
Protocol: U1 cells were obtained from the AIDS Research and Reference Reagent Program and maintained under standard culture conditions in RPMI 1640 supplemented with 10% fetal bovine serum (heat inactivated), 2 mM L-glutamine, 100 U/mL penicillin and 100 μg/mL streptomycin. U1 cells are derived from the histocytic leukemia cell line U937, and contain an integrated copy of a cytokine and/or phorbol inducible provirus (HIV-1IIIB). Cultures were maintained in such a way as to ensure exponential growth of the populations. Addition of TNF-α to the cell culture induces HIV-1, so that inhibition of virus production indicates an inhibition of a post-integration function of the HIV-1 life cycle. This is where an inhibitor of Rev function would be expected to act. […]
(§1) At the time of the assay, cells were collected by centrifugation and counted by hemacytometer. If cell viability by Trypan Blue dye exclusion was less than 70% the assay was terminated. The cells were adjusted to 5×10^4 cells/mL and 100 μL placed in 96 well plates with 100 μL media containing a final concentration of 5 ng/mL TNF-α and the test compound. Cultures were incubated for 3 days and supernatants harvested. Compound toxicity was determined by MTS dye reduction. Virus expression was measured by supernatant reverse transcriptase activity.
Reverse transcriptase was assayed to measure virus particle release as described above for the PBMC assay.
(§2) Compounds were tested in the U1 latency assay using the maximum high-test concentration possible based on the supplied stocks which are listed in table 3. Compounds were tested using the maximum high-test concentration possible based on the supplied stocks. Compounds were prepared at a 2× high-test concentration by combining drug stock with tissue culture media at a ratio of 5 μL of drug to 995 μL of media. This 2× high-test sample was subsequently serially diluted in tissue culture media using 1/2 log dilutions. This series of 2× concentrated drug was subsequently diluted 1:1 by combining with an equal volume of cells in media in the 96-well plates used for the assay. Temacrazine a known inhibitor of HIV transcription was used as a control compound that is active in the post-integration part of the HIV life cycle.
(§3) Compounds were tested using the maximum high-test concentration possible based on the supplied stocks. Compounds were prepared at a 2× high-test concentration by combining drug stock with tissue culture media at a ratio of 5 μL of drug to 995 μL of media. This 2× high-test (HT) sample was subsequently serially diluted in tissue culture media using 1/2 log dilutions. This series of 2× concentrated drug was subsequently diluted 1:1 by combining with an equal volume of cells in media in the 96-well plates used for the assay.

[2] = system: U1 cells; assay: MTS staining for cell viability in U1 cell assay; type: cell-based; conditions: analogs, Table 8, MTS, read-out: TC50 (the source's name)
Protocol: as §1
At assay termination, the assay plates were stained with the soluble tetrazolium-based dye MTS (CellTiter 96 Reagent, Promega) to determine cell viability and quantify compound toxicity as described for the PBMC assay.
as §2, §3

Compound	IC50 [1]	CC50 [2]
Cc1n[nH]c2nc3ccc(Cl)cc3c(-c3ccccc3)c12 [Compound 111]	1.7 µM	> 50 µM
Cc1n[nH]c2nc3ccc(Br)cc3c(-c3ccccc3)c12 [Compound 112]	1.08 µM	> 50 µM
COc1cc2cc(C(=O)Nc3ccccc3)c(N)nc2cc1OC [Compound 113]	27.4 µM	> 75 µM
COc1cc2cc3c(=O)[nH]c(-c4ccc(C)cc4)nc3nc2cc1OC [Compound 114]	14.4 µM	> 75 µM
COc1ccc2nc3c(c(N)c2c1)CCCC3 [Compound 211]	9.11 µM	48.5 µM
N#Cc1c(C(F)(F)F)nc2ccc(F)cc2c1N [Compound 212]	0.484 µM	28.6 µM
Nc1c2c(nc3ccc([N+](=O)[O-])cc13)CCCC2=O [Compound 213]	0.826 µM	58.6 µM
C=CCc1c(C)nc2ccc(OC)cc2c1N [Compound 214]	9.19 µM	> 75 µM
COc1ccc(-c2c(C(C)=O)c(C)nc3sc(C(N)=O)c(N)c23)cc1 [Compound 311]	1.65 µM	> 75 µM
CCc1c(C)nc2sc(C(=O)c3ccc(Cl)cc3)c(N)c2c1C [Compound 313]	> 50 µM	> 50 µM
Cc1ccc2c(N)c(C(N)=O)sc2n1 [Compound 314]	2.11 µM	> 75 µM
Cc1nc2sc(C(N)=O)c(N)c2c(C)c1CC(=O)c1ccccc1 [Compound 315]	0.75 µM	> 75 µM
NC(=O)c1sc2nc(-c3cccnc3)ccc2c1N [Compound 316]	23.4 µM	> 75 µM
NC(=O)c1sc2nc(-c3cccs3)cc(C(F)(F)F)c2c1N [Compound 317]	> 75 µM	> 75 µM
Cc1cc(C(F)(F)F)c2c(N)c(C(N)=O)sc2n1 [Compound 318]	< 0.237 µM	> 75 µM
CN1CCc2nc3sc(C(N)=O)c(N)c3cc2C1 [Compound 319]	20.2 µM	> 37.5 µM
COCc1cc(C)nc2sc(C(N)=O)c(N)c12 [Compound 320]	0.522 µM	> 75 µM
NC(=O)c1sc2nc3c(cc2c1N)CCCC3 [Compound 321]	1.94 µM	> 75 µM
NC(=O)c1sc2nc(-c3cccs3)cc(-c3ccc(F)cc3)c2c1N [Compound 322]	8.84 µM	17.4 µM
Cc1ccc(-c2cc(-c3ccccc3)nc3sc(C(N)=O)c(N)c23)cc1 [Compound 323]	0.745 µM	22.6 µM
NC(=O)c1sc2nc3c(cc2c1N)CCC3 [Compound 324]	2.19 µM	> 75 µM
CN(C)c1ccnc2sc(C(N)=O)c(N)c12 [Compound 325]	0.281 µM	> 75 µM
CCOC(=O)c1c2c(nc3sc(C(N)=O)c(N)c13)CCCC2 [Compound 327]	0.601 µM	65.8 µM

Compound	IC50 [1]	CC50 [2]
Cc1cc2c(N)c(C(N)=O)sc2nc1C [Compound 328]	1.06 µM	37 µM
CCCc1ccc2c(N)c(C(N)=O)sc2n1 [Compound 329]	2.03 µM	58.4 µM
Cc1cc2c(N)c(C(N)=O)sc2nc1-c1ccc(F)cc1 [Compound 330]	6.91 µM	> 75 µM
CCc1c(C)nc2sc(C(=O)NCC(=O)O)c(N)c2c1C [Compound 331]	66 µM	> 75 µM
Cc1ccc(-c2cc(C(F)(F)F)c3c(N)c(C(N)=O)sc3n2)cc1 [Compound 332]	> 75 µM	22.5 µM
NC(=O)c1sc2nc(Cc3ccccc3)cc(C(F)(F)F)c2c1N [Compound 334]	2.37 µM	> 75 µM
COc1ccc(-c2cc(-c3ccccc3)nc3sc(C(N)=O)c(N)c23)cc1 [Compound 335]	1.41 µM	53.9 µM
CC1CCc2nc3sc(C(N)=O)c(N)c3cc2C1 (centres unmarked) [Compound 336]	2.92 µM	> 75 µM
NC(=O)c1sc2nc3ccccc3cc2c1N [Compound 337]	2.4 µM	> 75 µM
CCOC(=O)c1c(C)nc2sc(C(N)=O)c(N)c2c1-c1ccccc1 [Compound 338]	5.23 µM	> 75 µM
COc1ccc(-c2cc(-c3ccc(OC)cc3)c3c(N)c(C(N)=O)sc3n2)cc1 [Compound 339]	1.28 µM	38.3 µM
CCOC(=O)c1sc(Cl)nc1C(F)(F)F [Compound 411]	> 75 µM	> 75 µM
O=C(Nc1ccccc1)c1sc(Cl)nc1C(F)(F)F [Compound 412]	16.7 µM	51.7 µM
O=C(Nc1cccc(F)c1)c1sc(Cl)nc1C(F)(F)F [Compound 413]	20.7 µM	50.7 µM
O=C(Nc1cccc(C(F)(F)F)c1)c1sc(Cl)nc1C(F)(F)F [Compound 414]	14.5 µM	14.7 µM
O=C(Nc1ccccc1F)c1sc(Cl)nc1C(F)(F)F [Compound 415]	37.3 µM	51.2 µM
Cc1ccc(NC(=O)c2sc(Cl)nc2C)cc1C [Compound 416]	0.767 µM	> 75 µM
Cc1ccc(NC(=O)c2sc(Cl)nc2C)cc1 [Compound 417]	1.62 µM	51.9 µM
Cc1nc(Cl)sc1C(=O)Nc1ccc(C(F)(F)F)cc1 [Compound 418]	2.18 µM	> 75 µM
Cc1nc(Cl)sc1C(=O)Nc1ccc(C(C)(C)C)cc1 [Compound 420]	6.8 µM	> 75 µM
N#Cc1ccc(NC(=O)c2sc(Cl)nc2-c2ccccc2)cc1 [Compound 421]	> 75 µM	> 75 µM
Cc1ccc(NC(=O)c2sc(Cl)nc2-c2ccccc2)cc1C [Compound 422]	14.3 µM	> 75 µM
Cc1ccc(NC(=O)c2sc(Cl)nc2-c2ccccc2)c(C)c1 [Compound 423]	42.4 µM	> 75 µM

Compound	IC50 [1]	CC50 [2]
COc1ccccc1NC(=O)c1cc(Cl)nnc1Cl [Compound 511]	14.3 µM	17.3 µM
O=C(c1cc(Cl)nnc1Cl)N1CCOCC1 [Compound 512]	26.3 µM	> 75 µM
CN1CCN(C(=O)c2cc(Cl)nnc2Cl)CC1 [Compound 513]	7.05 µM	> 75 µM
O=C(c1cc(Cl)nnc1Cl)N1CCCC1 [Compound 514]	> 75 µM	> 75 µM
O=C(NCc1ccccn1)c1cc(Cl)nnc1Cl [Compound 515]	13.6 µM	> 75 µM
Oc1nc(S)ncc1-c1ccccc1 [Compound 612]	> 75 µM	> 75 µM
Oc1nc(S)nc(O)c1-c1ccccc1 [Compound 613]	> 75 µM	> 75 µM
O=[N+]([O-])c1ccc(-c2cnc(NO)nc2)cc1 [Compound 614]	> 75 µM	> 75 µM
COc1ccc(-c2cnc(S(C)(=O)=O)nc2)cc1 [Compound 615]	11.9 µM	> 75 µM
CSc1ncc2c(n1)[nH]c1ccccc12 [Compound 616]	0.915 µM	> 75 µM
COc1ccc(-c2cnc(OC(C)(C)C)nc2OC(C)(C)C)cc1OC [Compound 617]	> 75 µM	> 75 µM
COc1ccc(-c2cnc(OC(C)(C)C)nc2OC(C)(C)C)cc1 [Compound 618]	18.3 µM	53.6 µM
Cc1cccc(-c2nc(Nc3ccc(I)cc3)c3ccccc3n2)c1 [Compound 718]	47.2 µM	50.1 µM
Cc1ccc(Nc2ncnc3ccccc23)cc1C [Compound 719]	1.73 µM	> 75 µM
CCOC(=O)c1ccc(Nc2ncnc3ccccc23)cc1 [Compound 720]	3.66 µM	> 75 µM
FC(F)(F)c1cccc(Nc2nc(-c3ccccc3)nc3ccccc23)c1 [Compound 722]	21.9 µM	35 µM
COC(=O)c1ccc(Nc2nc(-c3ccccc3Cl)nc3ccccc23)cc1 [Compound 728]	13.4 µM	17.5 µM
Cc1ccc(-c2nc(Nc3ccc(I)cc3)c3ccccc3n2)cc1 [Compound 729]	> 75 µM	> 75 µM
CCOc1ccccc1Nc1nc(-c2ccc(C)cc2)nc2ccccc12 [Compound 730]	> 75 µM	> 75 µM
Clc1ccccc1Nc1nc(-c2ccc(Br)cc2)nc2ccccc12 [Compound 731]	1.65 µM	> 75 µM
Brc1ccc(Nc2nc(-c3ccncc3)nc3ccccc23)cc1 [Compound 734]	4.07 µM	> 12.5 µM
